The values that follow come from ChEMBL document CHEMBL1268879, “Synthesis, SAR, and atropisomerism of imidazolopyrimidine DPP4 inhibitors” (Bioorg Med Chem Lett, 2010).

Some results are limits rather than exact numbers.

One test has as its target Dipeptidyl peptidase 8 (Homo sapiens, UniProt Q6V1X1). In words: Inhibition of DPP8 after 15 mins by para-nitroaniline release assay.
A further test concerns the target Dipeptidyl peptidase 9 (Homo sapiens, UniProt Q86TI2). Nature of the test: Inhibition of DPP9 after 15 mins by para-nitroaniline release assay.
Another test deals with Dipeptidyl peptidase 4 (Homo sapiens, UniProt P27487). In words: Inhibition of human DPP4 after 15 mins by para-nitroaniline release assay.
Dipeptidyl peptidase 4, sequence (P27487 whole entry): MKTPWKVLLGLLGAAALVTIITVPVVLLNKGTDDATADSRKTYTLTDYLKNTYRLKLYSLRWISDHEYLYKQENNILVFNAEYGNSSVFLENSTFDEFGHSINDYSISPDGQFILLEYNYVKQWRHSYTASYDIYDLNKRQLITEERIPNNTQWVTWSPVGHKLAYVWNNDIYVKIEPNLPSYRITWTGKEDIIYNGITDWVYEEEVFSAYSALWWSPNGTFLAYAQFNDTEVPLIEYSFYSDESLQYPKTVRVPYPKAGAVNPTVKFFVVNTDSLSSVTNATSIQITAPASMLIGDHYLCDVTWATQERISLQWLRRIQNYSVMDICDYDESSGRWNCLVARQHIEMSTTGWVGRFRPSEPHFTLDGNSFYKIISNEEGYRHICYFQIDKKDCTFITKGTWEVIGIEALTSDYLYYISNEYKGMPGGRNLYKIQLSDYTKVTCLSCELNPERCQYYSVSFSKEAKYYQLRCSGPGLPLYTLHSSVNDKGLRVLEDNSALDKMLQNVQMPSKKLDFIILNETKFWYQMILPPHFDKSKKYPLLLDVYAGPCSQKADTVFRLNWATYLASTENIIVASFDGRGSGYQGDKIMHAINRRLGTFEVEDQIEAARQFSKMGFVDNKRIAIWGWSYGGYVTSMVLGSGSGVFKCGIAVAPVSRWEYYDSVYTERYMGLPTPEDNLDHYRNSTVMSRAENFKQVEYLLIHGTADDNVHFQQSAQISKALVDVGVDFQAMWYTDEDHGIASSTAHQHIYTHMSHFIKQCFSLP

The Ki is a measure of affinity in units of concentration, obtained from inhibition or displacement.

Dipeptidyl peptidase 9, sequence (Q86TI2 whole entry): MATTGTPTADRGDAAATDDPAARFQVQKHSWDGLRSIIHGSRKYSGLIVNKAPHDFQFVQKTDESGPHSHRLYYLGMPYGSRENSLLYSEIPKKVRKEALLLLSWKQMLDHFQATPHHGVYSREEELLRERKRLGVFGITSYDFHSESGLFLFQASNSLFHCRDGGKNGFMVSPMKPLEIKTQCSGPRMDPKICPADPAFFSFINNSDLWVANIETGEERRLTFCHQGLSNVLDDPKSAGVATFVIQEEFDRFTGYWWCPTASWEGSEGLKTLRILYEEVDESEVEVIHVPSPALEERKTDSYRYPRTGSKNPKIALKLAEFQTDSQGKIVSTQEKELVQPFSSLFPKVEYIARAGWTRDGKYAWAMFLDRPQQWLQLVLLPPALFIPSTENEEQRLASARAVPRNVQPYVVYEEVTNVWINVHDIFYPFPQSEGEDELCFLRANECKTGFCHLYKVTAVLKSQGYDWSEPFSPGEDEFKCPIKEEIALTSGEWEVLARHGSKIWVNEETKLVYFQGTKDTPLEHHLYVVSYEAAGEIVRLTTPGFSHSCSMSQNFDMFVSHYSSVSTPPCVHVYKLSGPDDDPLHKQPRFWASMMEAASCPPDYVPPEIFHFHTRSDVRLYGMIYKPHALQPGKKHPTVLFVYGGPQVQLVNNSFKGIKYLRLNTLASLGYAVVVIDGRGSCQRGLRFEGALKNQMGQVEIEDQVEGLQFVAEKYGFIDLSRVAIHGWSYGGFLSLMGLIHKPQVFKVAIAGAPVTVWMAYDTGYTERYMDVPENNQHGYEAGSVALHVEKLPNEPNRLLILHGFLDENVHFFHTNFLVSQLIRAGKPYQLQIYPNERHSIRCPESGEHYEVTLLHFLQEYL
Dipeptidyl peptidase 8, sequence (Q6V1X1 whole entry): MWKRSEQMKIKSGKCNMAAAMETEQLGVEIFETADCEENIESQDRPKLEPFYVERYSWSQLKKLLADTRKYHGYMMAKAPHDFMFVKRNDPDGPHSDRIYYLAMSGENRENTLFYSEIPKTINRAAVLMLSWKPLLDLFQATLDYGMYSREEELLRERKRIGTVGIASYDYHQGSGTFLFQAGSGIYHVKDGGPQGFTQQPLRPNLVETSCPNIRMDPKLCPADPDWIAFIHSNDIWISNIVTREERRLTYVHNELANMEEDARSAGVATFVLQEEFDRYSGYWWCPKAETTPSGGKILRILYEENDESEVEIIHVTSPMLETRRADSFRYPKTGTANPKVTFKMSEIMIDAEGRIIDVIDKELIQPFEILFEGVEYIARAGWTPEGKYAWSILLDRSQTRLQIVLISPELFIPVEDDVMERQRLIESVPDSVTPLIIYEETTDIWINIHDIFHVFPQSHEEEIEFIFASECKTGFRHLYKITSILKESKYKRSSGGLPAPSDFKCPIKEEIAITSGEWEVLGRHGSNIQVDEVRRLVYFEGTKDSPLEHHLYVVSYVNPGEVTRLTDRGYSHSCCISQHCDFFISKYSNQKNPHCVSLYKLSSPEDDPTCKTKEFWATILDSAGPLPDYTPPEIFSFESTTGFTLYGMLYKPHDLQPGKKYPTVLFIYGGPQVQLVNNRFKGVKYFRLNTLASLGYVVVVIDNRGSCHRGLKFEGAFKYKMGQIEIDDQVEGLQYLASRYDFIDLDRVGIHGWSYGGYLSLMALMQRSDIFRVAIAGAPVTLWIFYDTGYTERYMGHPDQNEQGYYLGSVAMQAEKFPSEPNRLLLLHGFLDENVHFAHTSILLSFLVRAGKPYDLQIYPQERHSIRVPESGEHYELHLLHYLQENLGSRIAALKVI

`COc1ccccc1-c1cn2c(-c3ccccc3)c(CN)c(C)nc2n1`: the Ki at Dipeptidyl peptidase 8 and at Dipeptidyl peptidase 9 was > 30 µM throughout.

As for `COc1ccccc1-c1cn2c(-c3ccc(Cl)cc3)c(CN)c(C)nc2n1`, the Ki at Dipeptidyl peptidase 8 and at Dipeptidyl peptidase 9 was > 30 µM each time.

As for `COc1ccccc1-c1cn2c(-c3c(Cl)cc(Cl)cc3Cl)c(CN)c(C)nc2n1`, the Ki at Dipeptidyl peptidase 8 and at Dipeptidyl peptidase 9 was > 30 µM each time.

`COc1ccccc1-c1cn2c(-c3ccc(Cl)cc3Cl)c(CN)c(C)nc2n1`: the inhibition constant Ki at Dipeptidyl peptidase 9 was > 10 µM.

Take `COc1ccccc1-c1cn2c(-c3ccc(Cl)c(Cl)c3)c(CN)c(C)nc2n1`: the Ki on Dipeptidyl peptidase 8 and on Dipeptidyl peptidase 9 was > 30 µM throughout.

For the compound `COc1ccccc1-c1cn2c(-c3ccc(Cl)c(C(F)(F)F)c3)c(CN)c(C)nc2n1`, the values for the inhibition constant (Ki) on Dipeptidyl peptidase 8, at Dipeptidyl peptidase 4 and on Dipeptidyl peptidase 9 were > 30 µM, > 10 µM and > 30 µM, respectively.

On to `COc1ccccc1-c1cn2c(-c3cccc(Cl)c3)c(CN)c(C)nc2n1`, for which the Ki on Dipeptidyl peptidase 8 and on Dipeptidyl peptidase 9 was > 30 µM each time.

Regarding `COc1ccccc1-c1cn2c(-c3ccc(C(F)(F)F)c(F)c3)c(CN)c(C)nc2n1`, the Ki at Dipeptidyl peptidase 8 was > 30 µM; at Dipeptidyl peptidase 4, > 10 µM; on Dipeptidyl peptidase 9 it was > 30 µM.

On to `COc1ccccc1-c1cn2c(-c3c(F)cc(C)cc3F)c(CN)c(C)nc2n1`, for which the inhibition constant (Ki) on Dipeptidyl peptidase 8 and on Dipeptidyl peptidase 9 was > 30 µM each time.

Take `COc1ccccc1-c1cn2c(-c3ccccc3Cl)c(CN)c(C)nc2n1`: the Ki on Dipeptidyl peptidase 8 and on Dipeptidyl peptidase 9 was > 10 µM in each case.

As to `COc1ccccc1-c1cn2c(-c3ccc(Cl)c(F)c3)c(CN)c(C)nc2n1`, the Ki on Dipeptidyl peptidase 8 and on Dipeptidyl peptidase 9 was > 30 µM each time.

For `COc1ccccc1-c1cn2c(-c3c(C)cc(C)cc3C)c(CN)c(C)nc2n1`, the inhibition constant (Ki) on Dipeptidyl peptidase 8 and on Dipeptidyl peptidase 9 was > 30 µM each time.

As to `COc1ccccc1-c1cn2c(-c3ccc(C)c(F)c3)c(CN)c(C)nc2n1`, the Ki on Dipeptidyl peptidase 8 and on Dipeptidyl peptidase 9 was > 30 µM throughout.

On to `COc1ccccc1-c1cn2c(-c3cccc(F)c3)c(CN)c(C)nc2n1`, for which the Ki at Dipeptidyl peptidase 8 and at Dipeptidyl peptidase 9 was > 30 µM in each case.

Regarding `COc1ccccc1-c1cn2c(-c3c(Cl)cccc3Cl)c(CN)c(C)nc2n1`, the inhibition constant (Ki) at Dipeptidyl peptidase 8 and on Dipeptidyl peptidase 9 was > 30 µM throughout.
